This is an account of results in patent publication US10822376B2, “Biologically active peptides” (Baxalta Incorporated, priority 2008, dated 2020).

Data set [1] concerns human FVIII inhibited plasma. In words: Defined Intrinsic Thrombin Generation Assay (DITGA, triggered by FXIa and phospholipids). Format: biochemical. Particulars: for Activity in the Defined Intrinsic Thrombin Generation Assay: summary.
Data set [2] has as its system FVIII inhibited plasma. The data set is described as follows: Defined Dual-Pathway Thrombin Generation Assay (DDPTGA, reagent C high), FVIII inhibited plasma. The data set is classed as biochemical, human. The settings on record: for Peak IIa FEIBA EU / Peak IIa FVIIa EU / Peak Time FEIBA EU / Peak Time FVIIa EU: FVIII inhibited plasma; for Activity in the Defined Dual-Pathway Thrombin Generation Assay: summary, FVIII inhibited or deficient plasma. An excerpt: (§1) The intrinsic pathway of thrombin generation may be assayed in a thrombin generation assay by including FXIa and phospholipids. In such an assay, which is similar to an activated partial thromboplastin time (aPTT) test, thrombin generation is solely directed through the intrinsic pathway, and is FVIII dependent. A suitable assay is the Defined Intrinsic Thrombin Generation Assay described below. Alternatively, by employing low concentrations of TF and phospholipids instead of FXIa and phospholipids, thrombin is generated by both the extrinsic (tissue factor) and the intrinsic pathways. This form of the thrombin generation assay is the more physiologic one, as both thrombin generation pathways are involved; it is partially FVIII dependent. A suitable assay is the Defined Dual-Pathway Thrombin Generation Assay.
(§2) Preferably, Reagent C high is used.
(§3) Tissue factor dependency of peak thrombin generation and thrombin peak time was characterised in a composition containing a fixed concentration of phospholipid (namely 3.2 μM). Phospholipid dependency was characterised in a composition containing a fixed concentration of tissue factor (namely 7.2 μM). Peak time (time to peak thrombin generation) was dependent on the concentration of phospholipid or tissue factor. The final version of this assay is as described in the specific description, in which 10 μl reagent C high containing (32 μM phospholipid and 71.6 μM tissue factor) is used in a total volume of 100 μl.
(§4) Further studies were conducted using 3.2 μM phospholipid and 7.2 μM tissue factor in FVIII deficient or inhibited plasma, to characterise the effect on peak thrombin generation and thrombin peak time of various coagulation factor preparations. These studies provided a basis from which to compare the efficacy of the compounds in the assay. Briefly, rFVIII (Recombinate® FVIII from Baxter) was tested at 0, 5, 10, 20, 40 and 80 mU/ml in FVIII deficient plasma. FEIBA was tested at 0, 8, 16, 31, 63 and 125 mU/ml in FVIII inhibited plasma. FVIIa was tested at 0, 0.1, 0.4, 1.6, 6.3 and 25 nM in FVIII inhibited plasma. […] Peak thrombin increased and both the lag time and the thrombin peak time decrease.

Data set [3] has as its system FVIII deficient plasma. In words: Defined Dual-Pathway Thrombin Generation Assay (DDPTGA, reagent C high), FVIII deficient plasma. The data set is classed as biochemical, human. The settings on record: FVIII deficient plasma.
Description: as §1, §2, §3, §4

Data set [4] concerns Factor VIII deficient human plasma. The data set is described as follows: DDPTGA (reagent B) in FVIII depleted plasma. Note: key: '+' means stimulates; '−' means does not stimulate. Format: biochemical. The settings on record: compounds at 50 μM and 80, 90 or 100 μM.
Description: as §2

Data set [5] in a line: physchem. The settings on record: pH 7.4.
Description: (§5) Aqueous solubility is measured in PBS at pH 7.4 either in an assay provided by Cerep (France, Catalog ref. 900-11a) or according to the following protocol. The aim of this procedure is to determine the solubility of a drug candidate (analyte) in a buffer, by estimating the saturation concentration of the candidate in the buffer using HPLC. A known concentration of the candidate in an organic solvent is used as a standard. A stock solution of the test compound in DMSO must be prepared as the initial step. […] DMSO stock-solutions are diluted to a final concentration of 50 μM with DMSO (100% reference-solution) and buffer (test-solution) to provide a minimum volume of 500 μL of each. Both solutions are shaken at 25° C. at 950 rpm in an Eppendorf “thermomixer comfort” for at least 60 min. The suspension is centrifuged at 22 330 g for at least two min and 100 μL of the supernatant is transferred into polypropylene-inserts placed in glass vials and closed by snap-ring caps. Alternatively the solutions can be prepared in microtiter plates with half of the previously described starting solvent volume. For the determination of the solubility all samples are analyzed by HPLC in triplicate. Injection volume is at least 10 μL. The obtained data are analyzed by “Chemstation-software” (Agilent, Waldbronn, Germany). The peaks from the analyses of the organic solutions are integrated and the arithmetic mean is reported as “AUC 1” (reference area of known amount injected at the HPLC). […] The ratio of the mean “AUC 2” and “AUC 1” is calculated and thus the percentage of the dissolved amount of compound in buffer is obtained and solubility can be reported in μM.
The nature of data set [6]: Plasma stability. Particulars: human.
Description: Half-life of compounds in human or mouse plasma, or percentage of compound remaining after an incubation in human or mouse plasma, is determined as follows. In the experimental procedure, test compound concentrations are 5 μM, prepared from test compound stock solutions of 10 mM in DMSO. Propantheline is used as a standard. […] All of the samples are incubated in a water bath at 37° C. […] After a chosen duration of incubation (generally at t=60 min) each sample is mixed with a further 500 μl acetonitrile. The samples are mixed on a vortex mixer for 30 s and placed on ice for 10 min and collected for centrifugation. Samples are centrifuged at 20 000 g for 10 min at 4° C. 500 μl supernatant is transferred into a new 1.5 ml Eppendorf tube and an equal volume of acetonitrile is added. The sample is mixed again for 30 s using a vortex mixer. After a second centrifugation step (20 000 g, 10 min, 4° C.) 250 μl of the supernatant is transferred into HPLC glass vials for HPLC-MS analysis. Conditions for performing HPLC are as follows: Injection-volume is set to 20 μl. Temperature is set to 25° C. A linear gradient from 95:5 to 5:95 water:acetonitrile both containing 0:05% trifluoroacetic acid (TFA) (v/v) is applied at a flow rate of 0.3 ml/min for 10 min. The PDA-detector is scanning from 210-400 nm.
Data set [7] can be described thus: in vitro. Particulars: human, pH 7.4.
The nature of data set [8]: in vitro. The settings on record: mouse, pH 7.4.
Data set [9] addresses HERG channel (Homo sapiens, UniProt Q12809). In words: HERG inhibition, patch clamp assay. The procedure: QT prolongation is assessed by HERG inhibition measured by patch-clamp techniques or Rb^+ efflux.
For rigorous characterization of HERG inhibition the patch clamp assay is applied (Cerep, France, Catalog ref. 900-36). […] The test compounds (10 mM stock solutions) were dissolved in dimethylsulfoxide (DMSO). The solutions at 1 μM contained 0.01% DMSO.
(In general: In patch-clamp work, channel activity is measured electrically.)

The conditions of data set [10]: pH 7.4.
Description: as §5

≈ marks a conversion by molar mass, not a printed value. *1 amine or outer side, *2 acyl side, *3 side chain or, on linkers, in order; H or OH if unused. Where a SMILES comes first, the peptide text is derived from it. Where no end group is shown, it is not given here. The star is where a group is joined. NH(CH2)3(OCH2CH2)2O(CH2)3NH = C(CN[*:1])COCCOCCOCCCN[*:2]; X1 = NC(=O)CCC(=O)NCCCOCCOCCOCCCN*; Suc = O=C(CCC(=O)[*:2])[*:1] Some results are limits rather than exact numbers.

Chain of HERG channel (Q12809 whole entry): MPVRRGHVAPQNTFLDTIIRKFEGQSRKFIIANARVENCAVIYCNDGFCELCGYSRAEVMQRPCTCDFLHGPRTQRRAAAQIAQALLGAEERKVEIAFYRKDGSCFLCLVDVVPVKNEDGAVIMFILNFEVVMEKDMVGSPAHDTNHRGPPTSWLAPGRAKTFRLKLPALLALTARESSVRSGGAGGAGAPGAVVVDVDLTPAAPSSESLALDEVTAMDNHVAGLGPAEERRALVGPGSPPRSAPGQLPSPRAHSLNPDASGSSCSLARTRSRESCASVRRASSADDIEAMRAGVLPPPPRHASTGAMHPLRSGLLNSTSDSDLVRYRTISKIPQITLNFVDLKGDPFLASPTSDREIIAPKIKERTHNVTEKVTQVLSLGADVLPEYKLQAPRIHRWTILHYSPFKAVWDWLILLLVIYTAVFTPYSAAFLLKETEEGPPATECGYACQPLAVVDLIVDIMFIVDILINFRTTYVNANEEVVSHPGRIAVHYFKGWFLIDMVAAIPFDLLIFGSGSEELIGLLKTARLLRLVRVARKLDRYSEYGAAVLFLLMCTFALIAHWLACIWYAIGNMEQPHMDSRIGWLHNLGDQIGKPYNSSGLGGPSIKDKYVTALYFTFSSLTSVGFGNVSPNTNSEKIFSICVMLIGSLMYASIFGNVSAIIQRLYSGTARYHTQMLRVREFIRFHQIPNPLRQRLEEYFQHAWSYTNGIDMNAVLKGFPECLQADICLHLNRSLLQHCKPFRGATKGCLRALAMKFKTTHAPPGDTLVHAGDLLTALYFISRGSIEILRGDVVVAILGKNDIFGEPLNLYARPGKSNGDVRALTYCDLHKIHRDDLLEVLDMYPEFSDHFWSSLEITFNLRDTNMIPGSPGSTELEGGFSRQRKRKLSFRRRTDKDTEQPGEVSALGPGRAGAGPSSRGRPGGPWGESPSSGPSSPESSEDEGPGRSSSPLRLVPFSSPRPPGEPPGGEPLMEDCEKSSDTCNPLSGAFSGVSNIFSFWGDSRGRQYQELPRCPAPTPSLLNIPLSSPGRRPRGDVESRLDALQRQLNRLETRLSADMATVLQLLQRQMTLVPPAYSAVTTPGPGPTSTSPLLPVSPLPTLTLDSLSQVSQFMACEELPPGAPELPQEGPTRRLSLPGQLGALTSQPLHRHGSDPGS

Take `CC[C@H](C)[C@H](NC(=O)[C@H](CCC(=O)O)NC(=O)[C@H](Cc1ccccc1)NC(=O)[C@H](Cc1ccc(O)cc1)NC(=O)[C@H](CC(C)C)NC(=O)[C@H](CC(=O)O)NC(=O)[C@H](Cc1c[nH]c2ccccc12)NC(=O)[C@@H](NC(=O)[C@H](CC(=O)O)NC(=O)[C@H](Cc1ccccc1)NC(=O)[C@H](CCC(=O)O)NC(=O)[C@H](CCSC)NC(=O)[C@H](CCCNC(=N)N)NC(=O)CCC(=O)NCCCOCCOCCOCCCN)C(C)C)C(=O)N[C@H](C(=O)N[C@@H](Cc1c[nH]c2ccccc12)C(=O)NCCCOCCOCCOCCCNC(=O)CCC(N)=O)C(C)C` [Peptide A08] ({NH(CH2)3(OCH2CH2)2O(CH2)3NH-Suc}-RMEFDVWDLYFEIVW-X1): in data set [1] (peptide 6.25 μM), the “Thrombin peak time given as FEIBA equivalent activity” value (from here on “Thrombin peak time given”) stood at 563 mU/ml. In addition, the “Thrombin peak time given” value in [1] (peptide 12.5 μM) is recorded as 656 mU/ml. In addition, the “Thrombin peak time given” value in [1] (peptide 25 μM) is 764 mU/ml. Moreover, the “Thrombin peak time given” value in data set [1] (peptide 50 μM) was found to be 958 mU/ml. Also, the “Thrombin peak time given” value in [1] (peptide 100 μM) came to 1213 mU/ml. Moreover, in data set [1], the “Activity in the Defined Intrinsic Thrombin Generation Assay” value is “possess activity”. Also, in data set [2] (peptide 50 μM), the “Peak IIa FEIBA EU” value is “BLS (BLS = below lowest standard.)”, the “Peak IIa FVIIa EU” value is given as “BLS (BLS = below lowest standard.)”, the “Peak Time FEIBA EU” value was 9.1 mU/ml and the “Peak Time FVIIa EU” value was found to be 0.4 nM. The “Activity in the Defined Dual-Pathway Thrombin Generation Assay” value in [2] is listed as “possess activity”. For the same compound, in data set [3] (peptide 50 μM), the “Peak IIa FVIII EU” value is on record as “BLS (BLS = below lowest standard.)” and the “Peak Time FVIII EU” value is recorded as “BLS (BLS = below lowest standard.)”. The “Stimulation of thrombin generation” value in [4] is reported as “+”. The solubility (kinetic) in data set [5] was determined as 11 µM (≈ 29.2 µg/mL). In addition, the amount remaining at 0.5 h, 5 μM in data set [6] was 70%.
For `CC(=O)CC(c1ccccc1)c1c(O)c2ccccc2oc1=O` (centres unmarked) [Warfarin, warfarin], the recovery at 6 h, 10 μM in data set [7] was determined as 99.3%; in [8] it was 88.6%.
Ac-RMDFDVWDLYFEIVW-NH2 [Peptide A03]: the “Thrombin peak time given” value in data set [1] (peptide 6.25 μM) was found to be 477 mU/ml; in data set [1] (peptide 12.5 μM), 639 mU/ml; in [1] (peptide 25 μM), 762 mU/ml; in data set [1] (peptide 50 μM), 1069 mU/ml; in data set [1] (peptide 100 μM), 1396 mU/ml. Moreover, in data set [1], the “Activity in the Defined Intrinsic Thrombin Generation Assay” value is “possess activity”. The “Peak IIa FEIBA EU” value in data set [2] (peptide 50 μM) and in [2] (peptide 100 μM) was “BLS (BLS = below lowest standard.)” each time. In addition, the “Peak IIa FVIIa EU” value in [2] (peptide 50 μM) and in [2] (peptide 100 μM) was “BLS (BLS = below lowest standard.)” throughout. Further, the “Peak Time FEIBA EU” value in [2] (peptide 50 μM) and in data set [2] (peptide 100 μM) was “BLS (BLS = below lowest standard.)” throughout. In addition, the “Peak Time FVIIa EU” value in data set [2] (peptide 50 μM) and in [2] (peptide 100 μM) was “BLS (BLS = below lowest standard.)” throughout. For the same compound, the “Activity in the Defined Dual-Pathway Thrombin Generation Assay” value in data set [2] is given as “possess activity”. Further, the “Peak IIa FVIII EU” value in [3] (peptide 50 μM) and in data set [3] (peptide 100 μM) was “BLS (BLS = below lowest standard.)” each time. Further, the “Peak Time FVIII EU” value in [3] (peptide 50 μM) and in data set [3] (peptide 100 μM) was “BLS (BLS = below lowest standard.)” each time. Besides, the solubility (kinetic) in data set [5] turned out to be 110 µM. For the same compound, in data set [6], the share remaining at 0.5 h, 5 μM amounted to 92%.
“PEG5000-RMKFDVWDLYFEIVW-NH2 [Peptide A16]”: in data set [2] (peptide 50 μM), the “Peak IIa FEIBA EU” value is given as “BLS (BLS = below lowest standard.)”, the “Peak IIa FVIIa EU” value is listed as “BLS (BLS = below lowest standard.)”, the “Peak Time FEIBA EU” value is “BLS (BLS = below lowest standard.)” and the “Peak Time FVIIa EU” value is “BLS (BLS = below lowest standard.)”. Besides, in data set [2] (peptide 100 μM), the “Peak IIa FEIBA EU” value was “BLS (BLS = below lowest standard.)”, the “Peak IIa FVIIa EU” value is listed as “BLS (BLS = below lowest standard.)”, the “Peak Time FEIBA EU” value is “BLS (BLS = below lowest standard.)” and the “Peak Time FVIIa EU” value was “BLS (BLS = below lowest standard.)”. In addition, in [3] (peptide 50 μM), the “Peak IIa FVIII EU” value is recorded as “BLS (BLS = below lowest standard.)” and the “Peak Time FVIII EU” value is listed as “BLS (BLS = below lowest standard.)”. In data set [3] (peptide 100 μM), the “Peak IIa FVIII EU” value is listed as “BLS (BLS = below lowest standard.)” and the “Peak Time FVIII EU” value is given as “BLS (BLS = below lowest standard.)”. Also, the “Classification as HERG-channel blocker (potency ranking of Roche et al.)” value in data set [9] is recorded as “low-potency”. For the same compound, in [10], the Aqueous solubility came to 220 µM and the “Solubility in PBS” value was above 200 µM.
For the compound PEG5000-WSLYFEIVWE [Peptide A17], in data set [2] (peptide 50 μM), the “Peak IIa FEIBA EU” value was “BLS (BLS = below lowest standard.)”, the “Peak IIa FVIIa EU” value is “BLS (BLS = below lowest standard.)”, the “Peak Time FEIBA EU” value is given as “BLS (BLS = below lowest standard.)” and the “Peak Time FVIIa EU” value is listed as “BLS (BLS = below lowest standard.)”. Moreover, in [2] (peptide 100 μM), the “Peak IIa FEIBA EU” value was “BLS (BLS = below lowest standard.)”, the “Peak IIa FVIIa EU” value was “BLS (BLS = below lowest standard.)”, the “Peak Time FEIBA EU” value is recorded as “BLS (BLS = below lowest standard.)” and the “Peak Time FVIIa EU” value came to 0.1 nM. The “Activity in the Defined Dual-Pathway Thrombin Generation Assay” value in data set [2] was “possess activity”. In data set [3] (peptide 50 μM), the “Peak IIa FVIII EU” value is “BLS (BLS = below lowest standard.)” and the “Peak Time FVIII EU” value is given as 5.1 mU/ml. In addition, in data set [3] (peptide 100 μM), the “Peak IIa FVIII EU” value is “BLS (BLS = below lowest standard.)” and the “Peak Time FVIII EU” value is given as 5.9 mU/ml. Moreover, the Aqueous solubility in data set [10] was determined as 2000 µM.

The solubility (kinetic) is solubility judged after dilution from a stock solution rather than from solid. The amount remaining is what is left of the initial amount, in per cent. Higher therefore signals greater stability. The Aqueous solubility is the dissolved amount per volume that the medium holds. The low end stands for a poorly soluble substance, the high end for a readily soluble substance.
